Measured values from paper PMC10931776, “Modes of Interactions with DNA/HSA Biomolecules and Comparative Cytotoxic Studies of Newly Synthesized Mononuclear Zinc(II) and Heteronuclear Platinum(II)/Zinc(II) Complexes toward Colorectal Cancer Cells” (International Journal of Molecular Sciences, 2024).

Experiments:
[1] = target: T1, Human serum albumin (HSA) (Homo sapiens, UniProt P02768); test: HSA fluorescence quenching; assay type: binding; conditions: HSA 2 µM, complex 0–30 µM, PBS pH 7.4, room temperature, λex 295 nm
T1 construct: reagents in general came from Sigma-Aldrich, Acros Organics or Merck
T1 sequence (P02768 25-609): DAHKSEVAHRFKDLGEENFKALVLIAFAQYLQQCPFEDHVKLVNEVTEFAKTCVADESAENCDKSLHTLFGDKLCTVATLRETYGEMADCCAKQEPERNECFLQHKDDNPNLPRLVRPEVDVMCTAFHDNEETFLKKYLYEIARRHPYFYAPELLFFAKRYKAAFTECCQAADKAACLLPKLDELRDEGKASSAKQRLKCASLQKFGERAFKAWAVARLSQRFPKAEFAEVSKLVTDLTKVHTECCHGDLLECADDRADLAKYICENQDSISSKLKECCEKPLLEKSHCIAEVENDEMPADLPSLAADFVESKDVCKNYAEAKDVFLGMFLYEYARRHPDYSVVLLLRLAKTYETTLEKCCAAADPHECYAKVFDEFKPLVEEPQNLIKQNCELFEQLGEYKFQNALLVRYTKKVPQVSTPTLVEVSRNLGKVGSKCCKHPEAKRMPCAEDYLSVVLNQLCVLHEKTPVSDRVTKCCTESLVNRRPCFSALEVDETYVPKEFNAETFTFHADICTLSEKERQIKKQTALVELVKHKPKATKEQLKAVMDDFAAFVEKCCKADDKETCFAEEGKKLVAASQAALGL
From the text: Human serum albumin (HSA) produces a fluorescence signal when excited at 295 nm due to the tryptophan residues. This characteristic makes fluorescence spectroscopy an effective tool for studying complex interactions involving HSA. If the examined complex interacts with HSA, an increasing concentration of the complex will lead to a decrease in fluorescence, as shown in Figure 4 and Figures S14–S17. […] The Stern–Volmer equation (Equation (S2)) was used to determine the Stern–Volmer constant, Ksv, for the HSA interactions.
The binding affinity of the complexes C1–C5 to HSA has been determined through fluorescence quenching experiments. The measurements were conducted in a 0.01 M PBS with a pH of 7.4 at room temperature. The HSA concentration was kept constant at 2 μM while the concentration of complexes C1–C5 was increased from 0 to 30 μM, resulting in a significant decrease in emissions at 352 nm. Before each measurement, the system was shaken at room temperature. The fluorescence intensity was measured with the wavelength of excitation at 295 nm and recorded in the 300 to 500 nm range. The width of the excitation and emission slits (10 nm) and scan rate were maintained at a constant rate. The Stern–Volmer constants, Ksv, were determined by Equation (2).

[2] = system: CT-DNA; test: Ethidium bromide/CT-DNA fluorescence quenching (EB displacement); assay type: binding; conditions: EB/CT-DNA 1:1, 5 µM, PBS pH 7.4, room temperature, λex 527 nm, λem 612 nm
From the text: Fluorescent spectroscopy allows the determination of the intercalation potential of compounds. Intercalation involves planar aromatic molecules binding between the base pairs of DNA chains, causing them to elongate. Ethidium bromide (EB) is commonly used as a DNA intercalator and produces high levels of fluorescent emissions at 612 nm when intercalating between DNA strands. However, the addition of compounds that can intercalate between DNA strands and suppress the effects of EB will reduce fluorescent emissions. If a complex is able to replace EB, fluorescence reduction will occur, indicating the complex’s ability to bind intercalatively. Figure 3 and Figures S10–S13 show the results of fluorescence titrations in the presence of intercalator EB, where the emission intensity of a constant CT-DNA/EB solution concentration of 5 µM was monitored with increasing complex concentration up to a ratio of 5.
To determine whether the complex could displace EB from the CT-DNA-EB complex, the interactions of the complex with CT-DNA were examined in the presence of EB. The CT-DNA-EB solution was formed by combining EB and CT-DNA solutions with a concentration of 5 μM at a pH of 7.4. The impact of the complex binding to the CT-DNA was measured by analyzing the fluorescence emission spectrum after the addition of the examined complexes solution in increasing concentration, Figure 3.
The binding affinity of the complexes C1–C5 to CT-DNA via intercalation was determined using fluorescence spectroscopy. All measurements were conducted at room temperature in 0.01 M PBS with a pH of 7.4. Fluorescence measurements were performed by adding increasing complex concentrations (0–50 μM) to a CT-DNA and EB solution. Before each measurement, the system was shaken at room temperature. The fluorescence intensity was measured with the wavelength of excitation at 527 nm and the wavelength of emission at 612 nm. The width of the excitation and emission slits (10 nm) and scan rate were maintained at a constant rate. The emission of the solution was recorded in the range of 550 to 750 nm. The Stern–Volmer constants, Ksv, were determined by Equation (2). I0/I = 1 + Ksv[Q](2) [Q] is the concentration of the complex, I0 and I represent emission intensities in the absence and presence of complex, and Ksv is the Stern–Volmer constant obtained from the slope of the plot of I0/I vs. [Q] [25, 26, 27, 28].

Stern–Volmer constant Ksv, HSA [1]: 1.8 ± 0.1 10^4 M^–1
Substance: [ZnCl2(terpy^t^Bu)] [C1]
Stern–Volmer constant Ksv, CT-DNA [2]: 2.2 ± 0.1 10^4 M^–1
